Results taken from US7282503B2 (priority 2002, dated 2007).
Read-outs that look alike come from different tables or passages of the source.

Tests used:
[1] = system: Plasmopara viticola; experiment: Activity against peronospora of vines caused by Plasmopara viticola (protective spray, potted vines); type: in vivo, Plasmopara viticola on vines cultivar Müller-Thurgau; details: individual active compound, control 88% infection
Method: The active compounds, separately or together, were prepared as a stock solution with 0.25% by weight of active compound in acetone or DMSO. 1% by weight of the emulsifier Uniperol® EL (wetting agent having emulsifying and dispersing action based on ethoxylated alkylphenols) was added to this solution, and the solution was diluted with water to the desired concentration.
Evaluation is carried out by determining the infected leaf areas as a percentage. These percentages are converted into efficacies. The efficacy (W) is calculated as follows using Abbot's formula: W=(1−α/β)·100 α corresponds to the fungal infection of the treated plants in % and β corresponds to the fungal infection of the untreated (control) plants in % An efficacy of 0 means that the infection level of the treated plants corresponds to that of the untreated control plants; an efficacy of 100 means that the treated plants were not infected. The expected efficacies of the mixtures of the active compounds are determined using Colby's formula [R. S. Colby, Weeds 15, 20-22 (1967)] and compared with the observed efficacies. Colby's formula: E=x+y−x·y/100 […]
E expected efficacy, expressed as a % of the untreated control, when using the mixture of the active compounds A and B at the concentrations a and b x efficacy, expressed as a % of the untreated control, when using active compound A at a concentration a y efficacy, expressed as a % of the untreated control, when using active compound B at a concentration b Leaves of potted vines of the cultivar “Müller-Thurgau” were sprayed to runoff point with an aqueous suspension having the concentration of active compounds stated below. The next day, the undersides of the leaves were inoculated with an aqueous zoospore suspension of Plasmopara viticola. The vines were then initially placed in a water-vapor-saturated chamber at 24° C. for 48 hours and then in a greenhouse at 20-30° C. for 5 days. After this period of time, the plants were again placed in a moist chamber for 16 hours to promote sporangiophore eruption. The extent to which the infection had developed on the undersides of the leaves was then determined visually.

[2] = system: Phytophthora infestans; type: in vivo; details: individual active compound, control 90% infection

| SMILES | Efficacy in % of the untreated control ([1]; 3.75 ppm in spray liquor) [%] | Efficacy in % of the untreated control ([1]; 7.5 ppm in spray liquor) [%] | Efficacy in % of the untreated control ([2]; 3.75 ppm in spray liquid) [%] | Efficacy in % of the untreated control ([2]; 7.5 ppm in spray liquid) [%] | Efficacy in % of the untreated control ([2]; 15 ppm in spray liquid) [%] | Efficacy in % of the untreated control ([2]; 30 ppm in spray liquid) [%] | Efficacy in % of the untreated control ([1]; 3 ppm in spray liquor) [%] | Efficacy in % of the untreated control ([1]; 6 ppm in spray liquor) [%] | Efficacy in % of the untreated control ([2]; 0.75 ppm in spray liquid) [%] | Efficacy in % of the untreated control ([2]; 1.5 ppm in spray liquid) [%] | Efficacy in % of the untreated control ([2]; 3 ppm in spray liquid) [%] | Efficacy in % of the untreated control ([2]; 6 ppm in spray liquid) [%] |
| --- | --- | --- | --- | --- | --- | --- | --- | --- | --- | --- | --- | --- |
| CC1CCN(c2c(-c3c(F)cc(F)cc3F)c(Cl)nc3ncnn23)CC1 [I, 5-chloro-7-(4-methyl-pipiridin-1-yl)-6-(2,4,6-trifluorophenyl)-[1,2,4]triazolo[1,5-a]pyrimidine] | 9 | 32 | 0 | 0 | 0 | 33 |  |  |  |  |  |  |
| Cc1ccc(-c2c(Cl)nc(C#N)n2S(=O)(=O)N(C)C)cc1 [IIa, cyazofamid] |  |  |  |  |  |  | 72 | 83 | 56 | 67 | 78 | 89 |
